# Counter-ions that a name gives are not always drawn.
# Legend:
# human GPR52 = molecular target: T1, human GPR52 (Homo sapiens, UniProt Q9Y2T5); assay: Increase of intracellular cAMP concentration in human GPR52-expressing CHO cell (AlphaScreen cAMP assay); type: cell-based; details: test compound 10 µm, 37°C, 30 min, human GPR52-expressing CHO(dhfr-) cells, 100% = cAMP with 1 µM N-(2-hydroxyethyl)-3-[2-[3-(trifluoromethyl)benzyl]-1-benzofuran-4-yl]benzamide, 0% = DMSO; for activation at 10 µM: 0.5 h, read-out: GPR52 agonist activity (%)
# T1 construct: expressed in transfected cells; host or cells: CHO(dhfr-) cells
# T1 sequence (Q9Y2T5 whole entry): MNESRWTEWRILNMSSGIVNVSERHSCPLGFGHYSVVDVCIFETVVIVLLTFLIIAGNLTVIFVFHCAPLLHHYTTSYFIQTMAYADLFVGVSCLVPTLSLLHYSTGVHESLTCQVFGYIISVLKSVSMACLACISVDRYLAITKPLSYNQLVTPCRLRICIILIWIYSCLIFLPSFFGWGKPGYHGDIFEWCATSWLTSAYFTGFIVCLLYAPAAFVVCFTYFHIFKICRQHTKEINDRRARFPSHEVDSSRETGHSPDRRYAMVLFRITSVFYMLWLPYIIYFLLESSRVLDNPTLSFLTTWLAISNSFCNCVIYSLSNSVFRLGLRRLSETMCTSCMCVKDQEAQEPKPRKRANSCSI
# Experimental: Increase of intracellular cAMP concentration in human GPR52-expressing CHO cell
# Using OptiPlate-384 (PerkinElmer Inc.), 1×10^4 human GPR52-expressing CHO(dhfr-) cells were incubated together with a test compound ([…]) in an assay buffer (30 µL, HBSS (containing Ca^2+ and Mg^2+), 0.5% BSA, 100 µM IBMX, 100 µM Ro20-1724, 5 mM HEPES (pH 7.55)) at 37°C for 30 min. Thereafter, according to the protocol of AlphaScreen cAMP Assay Kit (PerkinElmer Inc.), the intracellular cAMP concentration was measured by EnVision (PerkinElmer Inc.). The GPR52 agonist activity was calculated, assuming the intracellular cAMP concentration in the presence of 1 µM N-(2-hydroxyethyl)-3-[2-[3-(trifluoromethyl)benzyl]-1-benzofuran-4-yl]benzamide to be 100% and assuming the intracellular cAMP concentration when DMSO was added instead of the test compound to be 0%.
# [1] = test system: methamphetamine-induced locomotor hyperactivity in mice; assay: Inhibition test of methamphetamine-induced locomotor hyperactivity; type: in vivo; details: male ICR mice, test compound 30 mg/kg body weight orally, methamphetamine 2 mg/kg body weight subcutaneously 60 min later; relative to vehicle treatment group
# Experimental: Inhibition test of methamphetamine-induced locomotor hyperactivity
# The compound of the present invention can be evaluated by assessing its capacity to inhibit methamphetamine-induced locomotor hyperactivity in mice. The method of Okuyama et al (Life Science, Vol. 65, p. 2109-2125 (1999)) was modified and used for testing the inhibition of methamphetamine-induced locomotor hyperactivity.
# Locomotor activity was measured using a 32-channel locomotor activity measurement device MDC-LT (BrainScience Idea Co., Ltd.), which emits infrared beams from the top of a cage (30 cm x 40 cm x 20 cm). 6- to 8-Week-old male ICR mice were acclimated for at least 45 min in the measurement cages, and then either test compound (30 mg/kg body weight) dissolved in vehicle (0.5% aqueous methylcellulose solution) or the vehicle alone was orally administered to the laboratory animals. This oral administration was followed 60 min later by subcutaneous administration of methamphetamine (2 mg/kg body weight).
# The number of times the laboratory animals passed through the infrared beams emitted inside the measurement cages in 150 min after administration of the test compound or vehicle was counted to quantify locomotor activity. The methamphetamine-induced locomotor hyperactivity inhibition rate (activity inhibition rate (%)) was calculated by the following equation. Activityinhibitionrate(%) = {1-(locomotoractivityoftestcompoundtreatmentgroupaftertreatmentwithmethamphetamine÷locomotoractivityofvehicletreatmentgroupaftertreatmentwithmethamphetamine)}x100 [formula]
Compound,GPR52 agonist activity (%) (human GPR52),motor activity suppression rate (%) [1] [%],activation at 10 µM (human GPR52) [%]
"Cc1nc(Cc2cccc(C(F)(F)F)c2)sc1NC(=O)c1ccnn1C [Example 3, 1-methyl-N-{4-methyl-2-[3-(trifluoromethyl)benzyl]-1,3-thiazol-5-yl}-1H-pyrazole-5-carboxamide]",81,32,–
"Cc1nc(Cc2cc(F)cc(Cl)c2)sc1NC(=O)c1ccnn1C [Example 145, N-[2-(3-chloro-5-fluorobenzyl)-4-methyl-1,3-thiazol-5-yl]-1-methyl-1H-pyrazole-5-carboxamide]",–,47,95
"Cc1nn(C)cc1C(=O)Nc1sc(Cc2cc(F)cc(Cl)c2)nc1C [Example 146, N-[2-(3-chloro-5-fluorobenzyl)-4-methyl-1,3-thiazol-5-yl]-1,3-dimethyl-1H-pyrazole-4-carboxamide]",–,42,84
"CCn1nccc1C(=O)Nc1sc(Cc2cc(F)cc(Cl)c2)nc1C [Example 148, N-[2-(3-chloro-5-fluorobenzyl)-4-methyl-1,3-thiazol-5-yl]-1-ethyl-1H-pyrazole-5-carboxamide]",–,67,76
"CCCn1nccc1C(=O)Nc1sc(Cc2cc(F)cc(Cl)c2)nc1C [Example 153, N-[2-(3-chloro-5-fluorobenzyl)-4-methyl-1,3-thiazol-5-yl]-1-propyl-1H-pyrazole-5-carboxamide]",–,39,72
"COc1cc(C(=O)Nc2sc(Cc3cc(F)cc(Cl)c3)nc2C)n(C)n1 [Example 235, N-[2-(3-chloro-5-fluorobenzyl)-4-methyl-1,3-thiazol-5-yl]-3-methoxy-1-methyl-1H-pyrazole-5-carboxamide]",–,–,79
"Cc1nc(Cc2cc(F)cc(Cl)c2)sc1NC(=O)c1cc(CN2CCOCC2)nn1C [Example 238, N-[2-(3-chloro-5-fluorobenzyl)-4-methyl-1,3-thiazol-5-yl]-1-methyl-3-(morpholinomethyl)-1H-pyrazole-5-carboxamide monohydrochloride]",–,–,80
"Cc1nc(Cc2cc(F)cc(Cl)c2)sc1NC(=O)c1cc(CS(C)(=O)=O)nn1C [Example 242, N-[2-(3-chloro-5-fluorobenzyl)-4-methyl-1,3-thiazol-5-yl]-1-methyl-3-[(methylsulfonyl)methyl]-1H-pyrazole-5-carboxamide]",–,–,76
"Cc1nc(Cc2cc(F)cc(Cl)c2)sc1NC(=O)c1cc(Cn2ccnc2)nn1C [Example 243, N-[2-(3-chloro-5-fluorobenzyl)-4-methyl-1,3-thiazol-5-yl]-3-[(1H-imidazol-1-yl)methyl]-1-methyl-1H-pyrazole-5-carboxamide]",–,–,77
"Cc1nc(Cc2cc(F)cc(Cl)c2)sc1NC(=O)c1cc(S(C)(=O)=O)nn1C [Example 246, N-[2-(3-chloro-5-fluorobenzyl)-4-methyl-1,3-thiazol-5-yl]-1-methyl-3-(methylsulfonyl)-1H-pyrazole-5-carboxamide]",–,–,70
"Cc1nc(Cc2cc(F)cc(Cl)c2)sc1NC(=O)c1cc([S+](C)[O-])nn1C (stereo not shown) [Example 247, N-[2-(3-chloro-5-fluorobenzyl)-4-methyl-1,3-thiazol-5-yl]-1-methyl-3-(methylsulfinyl)-1H-pyrazole-5-carboxamide]",–,–,69
"Cc1nc(Cc2cc(F)cc(C3CC3)c2)sc1NC(=O)c1ccnn1C [Example 249, N-[2-(3-cyclopropyl-5-fluorobenzyl)-4-methyl-1,3-thiazol-5-yl]-1-methyl-1H-pyrazole-5-carboxamide]",–,–,99
"Cc1nc(Cc2cc(F)cc(Cl)c2)sc1NC(=O)Cn1cnnn1 [Example 252, N-[2-(3-chloro-5-fluorobenzyl)-4-methyl-1,3-thiazol-5-yl]-2-(1H-tetrazol-1-yl)acetamide]",–,–,72
"N^4-[2-(3-chloro-5-fluorobenzyl)-4-methyl-1,3-thiazol-5-yl]piperidine-1,4-dicarboxamide [Example 254]",77,–,–

# Source: patent EP2530078A1, “THIAZOLE DERIVATIVE” (Takeda Pharmaceutical Company Limited, priority 2010, dated 2011)
